Values after ≈ are worked out from the molar mass of the structure shown.
Legend:
[1] = system: human KB tumor cell line which is transplanted in nude mice; test: Growth inhibition index WHI in vivo, human KB tumour cell line transplanted into nude mice; set-up: species or system human (KB tumour); nude mice (host); conditions: for Growth inhibition index WHI in % in vivo/humane KB tumour cell line transplanted into nude: 14th day after treatment related to the value on the day of application, WHI >100% = tumors became smaller
Procedure: Growth inhibition index WHI in % in vivo/humane
Substance KB tumour cell line transplanted into nude
The growth inhibition index WHI is determined in the human KB tumor cell line which is transplanted in nude mice. The growth inhibition index is defined as follows: [formula] of the treated group or in the control group on the 14th day after treatment related to the value on the day of application. […] In other words, the higher the WHI, the stronger the antitumor efficacy of a test substance.
(§1) The compounds of the invention display a good antineoplastic effect in the KB tumor (human carcinoma of the buccal cavity, transplanted subcutaneously to nude mice) and in autochthonous, chemically-induced DMBA-breast gland cancer in the rat.

[2] = system: Human KB tumour cell line; test: EC90, growth inhibition of human KB tumour cell line in vitro; format: cell-based; conditions: concentration which inhibits growth of cancer cells in vitro by 90%, read-out: ECqo in μg/ml Human KB tumour cell line in vitro
Procedure: Human KB tumour cell line in
The EC90 is determined in vitro in the same cell line. The EC90 is the concentration of substance having an antitumor effect in μg/ml which inhibits the growth of cancer cells in vitro by 90% in comparison to a control experiment without addition of the antitumor-acting substance.

DMBA-breast gland cancer = test: autochthonous, chemically-induced DMBA-breast gland cancer in the rat; format: in vivo; conditions: oral, 21.5 mg/kg body weight daily, 14-day treatment
From the text: as §1

[3] = system: blood platelet aggregation; test: inhibition of blood platelet aggregation; format: cell-based
phospholipase-A2 = phospholipase-A2 inhibition; format: biochemical
lipoxygenase = lipoxygenase inhibition; format: biochemical

Row | SMILES | IC90 [2] [µg/mL] | Growth inhibition index WHI in % in vivo/humane KB tumour cell line transplanted into nude [1] [%] | regression of the KB tumors ([1]; 2×316 mg/kg body weight, given at intervals of one week) | regression of DMBA tumors weighing 5 g (DMBA-breast gland cancer) | inhibition of blood platelet aggregation [3] | phospholipase-A2-inhibiting effect (phospholipase-A2) | lipoxygenase-inhibiting effect (lipoxygenase)
1 | CCCCCCCCCCCCCCCCCCOP(=O)([O-])OCC[N+]1(C)CCOCC1 [D 20680] | > 10 | 0 |  |  |  |  | 
2 | CCCCCCCCCCCCCCCCCCOP(=O)([O-])OCC[N+](C)(C)C [D 19391] | 0.31 (≈ 0.712 µM) | 11 |  |  |  |  | 
3 | CCCCCCCCCCCCCCCCCCOP(=O)([O-])OCC[N+]1(C)CCCCC1 [D 20133, Octadecyl-[2-(N-methylpiperidino)-ethyl]-phosphate] | 0.3 (≈ 0.631 µM) | 121 | achieved a regression of the KB tumors | regressed to the borderline of palpability | causes inhibition of blood platelet aggregation | phospholipase-A2 -inhibiting | lipoxygenase-inhibiting effect
4 | CCCCCCCCCCCCCCCCCCOP(=O)([O-])OCC[N+]1(CC)CCCCC1 [D 20931] | 1 (≈ 2.04 µM) | 13 |  |  |  |  | 

Continued, in another order:

Row | IC90 [2] [µg/mL] | SMILES | Growth inhibition index WHI in % in vivo/humane KB tumour cell line transplanted into nude [1] [%] | regression of the KB tumors ([1]; 2×316 mg/kg body weight, given at intervals of one week) | regression of DMBA tumors weighing 5 g (DMBA-breast gland cancer) | inhibition of blood platelet aggregation [3] | phospholipase-A2-inhibiting effect (phospholipase-A2) | lipoxygenase-inhibiting effect (lipoxygenase)
5 | > 1 | CCCCCCCCCCCCCCCCCCOP(=O)([O-])OCC[n+]1ccccc1 [D 19862] | 0 |  |  |  |  | 
6 | 1 (≈ 2.04 µM) | CCCCCCCCCCCCCCCCCCOP(=O)([O-])OCC[N+]1(C)CCCCCC1 [D20918] | 0 |  |  |  |  | 
